From ChEMBL document CHEMBL1201861, “Genomics of Drug Sensitity in Cancer screening data, Wellcome Trust Sanger Institute”
pIC50: −log10 of the molar value.

What was measured:
Assay in all cases: cells
GT3TKB = format: functional, cell-based, Homo sapiens; details: Homo sapiens, GT3TKB;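 also: growth inhibition of the cell line, read out with a cell viability assay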
Description: SANGER: Inhibition of human GT3TKB cell growth in a cell viability assay.

LB2518-MEL = format: functional, cell-based, Homo sapiens; details: Homo sapiens, LB2518-MEL;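 also: growth inhibition of human LB2518-MEL cells, measured with a cell viability assay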
Description: SANGER: Inhibition of human LB2518-MEL cell growth in a cell viability assay.

SW872 = format: functional, cell-based, Homo sapiens; details: Homo sapiens, SW872;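 also: growth inhibition of SW872 cells, read out by a viability assay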
Description: SANGER: Inhibition of human SW872 cell growth in a cell viability assay.

697 = format: functional, cell-based, Homo sapiens; details: Homo sapiens
Description: SANGER: Inhibition of human 697 cell growth in a cell viability assay.

KU812 cell line = format: functional, cell-based, Homo sapiens; details: Homo sapiens, KU812;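 also: growth inhibition of KU812 cells, read out with a cell viability assay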
Description: SANGER: Inhibition of human KU812 cell growth in a cell viability assay.

LC-2-ad = format: functional, cell-based, Homo sapiens; details: Homo sapiens, LC-2-ad;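 also: growth inhibition of human LC-2-ad cells, read out with a cell viability assay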
Description: SANGER: Inhibition of human LC-2-ad cell growth in a cell viability assay.

A253 cell line = format: functional, cell-based, Homo sapiens; details: Homo sapiens, A253;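 also: growth inhibition of A253 cells, read out with a cell viability assay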
Description: SANGER: Inhibition of human A253 cell growth in a cell viability assay.

MMAC-SF = format: functional, cell-based, Homo sapiens; details: Homo sapiens, MMAC-SF;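 also: growth inhibition of human MMAC-SF cells, read out with a cell viability assay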
Description: SANGER: Inhibition of human MMAC-SF cell growth in a cell viability assay.

NKM-1 = format: functional, cell-based, Homo sapiens; details: Homo sapiens, NKM-1;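 also: growth inhibition of NKM-1 cells, read out with a cell viability assay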
Description: SANGER: Inhibition of human NKM-1 cell growth in a cell viability assay.

DB = format: functional, cell-based, Homo sapiens; details: Homo sapiens, DB
Description: SANGER: Inhibition of human DB cell growth in a cell viability assay.

TE-1 = format: functional, cell-based, Homo sapiens; details: Homo sapiens, TE-1;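 also: growth inhibition of the human TE-1 cell line, read out with a cell viability assay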
Description: SANGER: Inhibition of human TE-1 cell growth in a cell viability assay.

ACN = format: functional, cell-based, Homo sapiens; details: Homo sapiens, ACN;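 also: growth inhibition of the human ACN cell line, read out via cell viability testing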
Description: SANGER: Inhibition of human ACN cell growth in a cell viability assay.

OMC-1 = format: functional, cell-based, Homo sapiens; details: Homo sapiens, OMC-1;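 also: growth inhibition of the OMC-1 cell line, measured by a cell viability assay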
Description: SANGER: Inhibition of human OMC-1 cell growth in a cell viability assay.

KE-37 = format: functional, cell-based, Homo sapiens; details: Homo sapiens, KE-37;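 also: growth inhibition of KE-37 cells, read out with a cell viability assay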
Description: SANGER: Inhibition of human KE-37 cell growth in a cell viability assay.

TE-8 = format: functional, cell-based, Homo sapiens; details: Homo sapiens, TE-8;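 also: growth inhibition of TE-8 cells, measured with a cell viability readout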
Description: SANGER: Inhibition of human TE-8 cell growth in a cell viability assay.

HuTu80 = format: functional, cell-based, Homo sapiens, HUTU-80; details: Homo sapiens, HuTu80;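 also: growth inhibition of HuTu80 human cells, determined with a cell viability readout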
Description: SANGER: Inhibition of human HUTU-80 cell growth in a cell viability assay.

KG-1 = format: functional, cell-based, Homo sapiens; details: Homo sapiens, KG-1;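 also: growth inhibition of KG-1 cells, read out by a cell viability assay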
Description: SANGER: Inhibition of human KG-1 cell growth in a cell viability assay.

LU-134-A = format: functional, cell-based, Homo sapiens; details: Homo sapiens, LU-134-A
Description: SANGER: Inhibition of human LU-134-A cell growth in a cell viability assay.

HCE-T = format: functional, cell-based, Homo sapiens; details: Homo sapiens, HCE-T;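 also: cell viability assay read-out, reporting inhibition of HCE-T cell growth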
Description: SANGER: Inhibition of human HCE-T cell growth in a cell viability assay.

MZ7-mel = format: functional, cell-based, Homo sapiens; details: Homo sapiens, MZ7-mel;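 also: growth inhibition of human MZ7-mel cells, measured by a cell viability assay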
Description: SANGER: Inhibition of human MZ7-mel cell growth in a cell viability assay.

RCC10RGB = format: functional, cell-based, Homo sapiens; details: Homo sapiens, RCC10RGB;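 also: growth inhibition of human RCC10RGB cells, read out by a cell viability assay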
Description: SANGER: Inhibition of human RCC10RGB cell growth in a cell viability assay.

SK-UT-1 = format: functional, cell-based, Homo sapiens; details: Homo sapiens, SK-UT-1;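 also: growth inhibition of SK-UT-1 cells, measured by a cell viability assay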
Description: SANGER: Inhibition of human SK-UT-1 cell growth in a cell viability assay.

KP-N-YS = format: functional, cell-based, Homo sapiens; details: Homo sapiens, KP-N-YS;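 also: cell viability assay measuring inhibition of cell line growth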
Description: SANGER: Inhibition of human KP-N-YS cell growth in a cell viability assay.

SF-539 = format: functional, cell-based, Homo sapiens; details: Homo sapiens, SF-539;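 also: Read-out is a cell viability assay, with IC50 reflecting inhibition of cell growth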
Description: SANGER: Inhibition of human SF539 cell growth in a cell viability assay.

MHH-PREB-1 = format: functional, cell-based, Homo sapiens; details: Homo sapiens, MHH-PREB-1;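 also: cell viability assay measuring inhibition of proliferation of human MHH-PREB-1 cells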
Description: SANGER: Inhibition of human MHH-PREB-1 cell growth in a cell viability assay.

LNCaP-Clone-FGC = format: functional, cell-based, Homo sapiens; details: Homo sapiens, LNCaP-Clone-FGC
Description: SANGER: Inhibition of human LNCaP-Clone-FGC cell growth in a cell viability assay.

HT = format: functional, cell-based, Homo sapiens; details: Homo sapiens, HT
Description: SANGER: Inhibition of human HT cell growth in a cell viability assay.

Lu-65 = format: functional, cell-based, Homo sapiens; details: Homo sapiens, Lu-65;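 also: growth inhibition of Lu-65 cancer cells, read out by a cell viability assay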
Description: SANGER: Inhibition of human LU-65 cell growth in a cell viability assay.

JAR = format: functional, cell-based, Homo sapiens; details: Homo sapiens, JAR;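 also: growth inhibition of human JAR cells determined with a cell viability assay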
Description: SANGER: Inhibition of human JAR cell growth in a cell viability assay.

LS-513 = format: functional, cell-based, Homo sapiens; details: Homo sapiens, LS-513
Description: SANGER: Inhibition of human LS-513 cell growth in a cell viability assay.

NB69 = format: functional, cell-based, Homo sapiens; details: Homo sapiens, NB69;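 also: growth inhibition of NB69 cells, determined by a cell viability assay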
Description: SANGER: Inhibition of human NB69 cell growth in a cell viability assay.

JVM-2 = format: functional, cell-based, Homo sapiens; details: Homo sapiens, JVM-2;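 also: growth inhibition of JVM-2 cells determined by a cell viability assay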
Description: SANGER: Inhibition of human JVM-2 cell growth in a cell viability assay.

Calu-6 = format: functional, cell-based, Homo sapiens; details: Homo sapiens, Calu-6;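 also: growth of human Calu-6 cells, read out by a cell viability assay, IC50 marking inhibition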
Description: SANGER: Inhibition of human Calu-6 cell growth in a cell viability assay.

CW-2 = format: functional, cell-based, Homo sapiens; details: Homo sapiens, CW-2;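 also: growth inhibition of CW-2 cells, read out by a cell viability assay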
Description: SANGER: Inhibition of human CW-2 cell growth in a cell viability assay.

A101D = format: functional, cell-based, Homo sapiens; details: Homo sapiens, A101D;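 also: growth inhibition of the cell line, measured with a viability assay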
Description: SANGER: Inhibition of human A101D cell growth in a cell viability assay.

C8166 = format: functional, cell-based, Homo sapiens; details: Homo sapiens, C8166;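 also: growth inhibition of human C8166 cells measured by a cell viability assay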
Description: SANGER: Inhibition of human C8166 cell growth in a cell viability assay.

GI-1 = format: functional, cell-based, Homo sapiens; details: Homo sapiens, GI-1;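 also: growth inhibition of human GI-1 cells, measured with a cell viability readout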
Description: SANGER: Inhibition of human GI-1 cell growth in a cell viability assay.

MC116 = format: functional, cell-based, Homo sapiens; details: Homo sapiens, MC116;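 also: growth inhibition of MC116 cells, read out with a cell viability assay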
Description: SANGER: Inhibition of human MC116 cell growth in a cell viability assay.

SNB-75 = format: functional, cell-based, Homo sapiens; details: Homo sapiens, SNB-75;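 also: cell viability assay measuring growth inhibition of human SNB-75 cells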
Description: SANGER: Inhibition of human SNB75 cell growth in a cell viability assay.

DEL = format: functional, cell-based, Homo sapiens; details: Homo sapiens, DEL;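 also: growth inhibition of the human DEL cell line, read out with a cell viability assay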
Description: SANGER: Inhibition of human DEL cell growth in a cell viability assay.

D-263MG = format: functional, cell-based, Homo sapiens; details: Homo sapiens, D-263MG
Description: SANGER: Inhibition of human D-263MG cell growth in a cell viability assay.

ONS-76 = format: functional, cell-based, Homo sapiens; details: Homo sapiens, ONS-76;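 also: growth inhibition of human ONS-76 cells, read out with a cell viability assay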
Description: SANGER: Inhibition of human ONS-76 cell growth in a cell viability assay.

COLO-668 = format: functional, cell-based, Homo sapiens; details: Homo sapiens, COLO-668
Description: SANGER: Inhibition of human COLO-668 cell growth in a cell viability assay.

KURAMOCHI = format: functional, cell-based, Homo sapiens; details: Homo sapiens, KURAMOCHI;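 also: growth inhibition of KURAMOCHI cells, read out with a cell viability assay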
Description: SANGER: Inhibition of human KURAMOCHI cell growth in a cell viability assay.

NB5 = format: functional, cell-based, Homo sapiens; details: Homo sapiens, NB5;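 also: growth inhibition of NB5 cells, read out as cell viability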
Description: SANGER: Inhibition of human NB5 cell growth in a cell viability assay.

L-428 = format: functional, cell-based, Homo sapiens; details: Homo sapiens, L-428
Description: SANGER: Inhibition of human L-428 cell growth in a cell viability assay.

NCI-H446 = format: functional, cell-based, Homo sapiens; details: Homo sapiens, NCI-H446;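 also: growth inhibition of NCI-H446 cells determined by a cell viability assay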
Description: SANGER: Inhibition of human NCI-H446 cell growth in a cell viability assay.

MLMA = format: functional, cell-based, Homo sapiens; details: Homo sapiens, MLMA;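 also: growth inhibition of MLMA cells (human), determined through a cell viability readout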
Description: SANGER: Inhibition of human MLMA cell growth in a cell viability assay.

MZ2-MEL = format: functional, cell-based, Homo sapiens; details: Homo sapiens, MZ2-MEL;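 also: growth inhibition of MZ2-MEL cells read out with a cell viability assay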
Description: SANGER: Inhibition of human MZ2-MEL cell growth in a cell viability assay.

`Cc1ccc(-c2c(C(=O)CCl)n(CCCO)c3ncnc(N)c23)cc1` showed a pIC50 (GT3TKB) of less than 5.40, a pIC50 (LB2518-MEL) of less than 5.40 and a pIC50 (SW872) of less than 5.40. The pIC50 697 was 6.53, the pIC50 (KU812 cell line) was less than 5.40 and the pIC50 (LC-2-ad) was 5.56. The pIC50 (A253 cell line) was less than 5.40, the pIC50 (MMAC-SF) was less than 5.40 and the pIC50 (NKM-1) was less than 5.40. The pIC50 (DB) was less than 5.40, the pIC50 (TE-1) was less than 5.40 and the pIC50 (ACN) was less than 5.40. The pIC50 (OMC-1) was less than 5.40, the pIC50 (KE-37) was less than 5.40 and the pIC50 (TE-8) was 5.71. The pIC50 (HuTu80) was less than 5.40, the pIC50 (KG-1) was less than 5.40 and the pIC50 (LU-134-A) was less than 5.40. It also gave a pIC50 (HCE-T) of less than 5.40, a pIC50 (MZ7-mel) of less than 5.40 and a pIC50 (RCC10RGB) of less than 5.40. The pIC50 (SK-UT-1) was less than 5.40, the pIC50 (KP-N-YS) was less than 5.40 and the pIC50 (SF-539) was less than 5.40. The pIC50 (MHH-PREB-1) was 5.41, the pIC50 (LNCaP-Clone-FGC) was less than 5.40 and the pIC50 (HT) was less than 5.40. For the same molecule, the pIC50 (Lu-65) was less than 5.40, the pIC50 (JAR) was less than 5.40 and the pIC50 (LS-513) was less than 5.40. It also gave a pIC50 (NB69) of less than 5.40, a pIC50 (JVM-2) of less than 5.40 and a pIC50 (Calu-6) of less than 5.40. It also gave a pIC50 (CW-2) of less than 5.40, a pIC50 (A101D) of 5.42 and a pIC50 (C8166) of less than 5.40. For the same molecule, the pIC50 (GI-1) was 5.57, the pIC50 (MC116) was less than 5.40 and the pIC50 (SNB-75) was less than 5.40. It also gave a pIC50 (DEL) of less than 5.40, a pIC50 (D-263MG) of less than 5.40 and a pIC50 (ONS-76) of less than 5.40. For the same molecule, the pIC50 (COLO-668) was less than 5.40, the pIC50 (KURAMOCHI) was less than 5.40 and the pIC50 (NB5) was less than 5.40. For the same molecule, the pIC50 (L-428) was less than 5.40, the pIC50 (NCI-H446) was less than 5.40 and the pIC50 (MLMA) was less than 5.40. For the same molecule, the pIC50 (MZ2-MEL) was less than 5.40.
For `COc1cc2ncn(-c3cc(OCc4ccccc4C(F)(F)F)c(C(N)=O)s3)c2cc1OC` [GW843682X], the pIC50 (GT3TKB) was 7.91, the pIC50 (LB2518-MEL) was 6.97 and the pIC50 (SW872) was 7.56. It also gave a pIC50 697 of 8.01, a pIC50 (KU812 cell line) of 7.07 and a pIC50 (LC-2-ad) of 7.81. It also gave a pIC50 (A253 cell line) of 7.27, a pIC50 (MMAC-SF) of less than 6.59 and a pIC50 (NKM-1) of 6.86. The pIC50 (DB) was less than 6.59, the pIC50 (TE-1) was 7.85 and the pIC50 (ACN) was 7.48. The pIC50 (OMC-1) was less than 6.59, the pIC50 (KE-37) was 8.32 and the pIC50 (TE-8) was 8.23. It also gave a pIC50 (HuTu80) of 7.65, a pIC50 (KG-1) of less than 6.59 and a pIC50 (LU-134-A) of 6.92. It also gave a pIC50 (HCE-T) of 6.66, a pIC50 (MZ7-mel) of 7.08 and a pIC50 (RCC10RGB) of less than 6.59. It also gave a pIC50 (SK-UT-1) of 7.62, a pIC50 (KP-N-YS) of 7.57 and a pIC50 (SF-539) of less than 6.59. The pIC50 (MHH-PREB-1) was 7.68, the pIC50 (LNCaP-Clone-FGC) was less than 6.59 and the pIC50 (HT) was 6.89. It also gave a pIC50 (Lu-65) of less than 6.59, a pIC50 (JAR) of 7.25 and a pIC50 (LS-513) of 6.67. It also gave a pIC50 (NB69) of less than 6.59, a pIC50 (JVM-2) of less than 6.59 and a pIC50 (Calu-6) of 7.43. For the same molecule, the pIC50 (CW-2) was less than 6.59, the pIC50 (A101D) was 7.95 and the pIC50 (C8166) was less than 6.59. The pIC50 (GI-1) was 8.14, the pIC50 (MC116) was 7.44 and the pIC50 (SNB-75) was 7.01. For the same molecule, the pIC50 (DEL) was 7.70, the pIC50 (D-263MG) was less than 6.59 and the pIC50 (ONS-76) was 7.11. For the same molecule, the pIC50 (COLO-668) was less than 6.59, the pIC50 (KURAMOCHI) was 7.30 and the pIC50 (NB5) was 7.06. It also gave a pIC50 (L-428) of 6.96, a pIC50 (NCI-H446) of 7.92 and a pIC50 (MLMA) of 7.60. It also gave a pIC50 (MZ2-MEL) of 6.90.
With `CC(=O)O[C@H]1C(=O)[C@@]2(C)[C@H]([C@H](OC(=O)c3ccccc3)[C@]3(O)C[C@H](OC(=O)[C@H](O)[C@@H](NC(=O)c4ccccc4)c4ccccc4)C(C)=C1C3(C)C)[C@]1(OC(C)=O)CO[C@@H]1C[C@@H]2O` [PACLITAXEL] the pIC50 (GT3TKB) was 8.36, the pIC50 (LB2518-MEL) was 7.09 and the pIC50 (SW872) was 7.38. The pIC50 697 was 8.83, the pIC50 (KU812 cell line) was 7.69 and the pIC50 (LC-2-ad) was 9.50. The pIC50 (A253 cell line) was 7.76, the pIC50 (MMAC-SF) was 7.34 and the pIC50 (NKM-1) was less than 6.99. The pIC50 (DB) was less than 6.99, the pIC50 (TE-1) was 8.22 and the pIC50 (ACN) was 8.50. For the same molecule, the pIC50 (OMC-1) was less than 6.99, the pIC50 (KE-37) was 7.91 and the pIC50 (TE-8) was 8.93. For the same molecule, the pIC50 (HuTu80) was 8.77, the pIC50 (KG-1) was less than 6.99 and the pIC50 (LU-134-A) was 7.32. For the same molecule, the pIC50 (HCE-T) was 7.68, the pIC50 (MZ7-mel) was 7.39 and the pIC50 (RCC10RGB) was less than 6.99. It also gave a pIC50 (SK-UT-1) of 8.32, a pIC50 (KP-N-YS) of less than 6.99 and a pIC50 (SF-539) of 7.62. For the same molecule, the pIC50 (MHH-PREB-1) was 7.66, the pIC50 (LNCaP-Clone-FGC) was less than 6.99 and the pIC50 (HT) was 7.09. For the same molecule, the pIC50 (Lu-65) was less than 6.99, the pIC50 (JAR) was 7.53 and the pIC50 (LS-513) was less than 6.99. For the same molecule, the pIC50 (NB69) was less than 6.99, the pIC50 (JVM-2) was less than 6.99 and the pIC50 (Calu-6) was 7.99. The pIC50 (CW-2) was less than 6.99, the pIC50 (A101D) was 8.02 and the pIC50 (C8166) was less than 6.99. The pIC50 (GI-1) was 7.86, the pIC50 (MC116) was 8.54 and the pIC50 (SNB-75) was 7.81. The pIC50 (DEL) was 8.07, the pIC50 (D-263MG) was less than 6.99 and the pIC50 (ONS-76) was 7.69. The pIC50 (COLO-668) was less than 6.99, the pIC50 (KURAMOCHI) was 8.13 and the pIC50 (NB5) was less than 6.99. The pIC50 (L-428) was less than 6.99, the pIC50 (NCI-H446) was 7.68 and the pIC50 (MLMA) was 7.13. For the same molecule, the pIC50 (MZ2-MEL) was 7.32.
